From article PMC12019362, “Conformational changes in the motor ATPase CpaF facilitate a rotary mechanism of Tad pilus assembly” (Nature Communications, 2025) come the findings set out here.

One series concerns the target T1, CpaF (Caulobacter vibrioides, UniProt Q9L714, K287A).
T1 construct: full length (501 residues), N-terminal His6 tag (pET28a), tag removal not described, E. coli Rosetta 2; homohexamer; residues 80-501 modelled
Briefly: enzyme-coupled ATPase assay (pyruvate kinase / lactate dehydrogenase, NADH at […] nm). The class given is biochemical. To be noted: 1 mM ATP, 1 mM MgCl2, pH 8.0, 30 °C; Walker A mutant.

A further series has as its target T2, CpaF^73-501 (Caulobacter vibrioides, UniProt Q9L714).
T2 construct: IDR truncation, residues 73-501, N-terminal His6 tag (pET28a), E. coli Rosetta 2
The series is described as above. To be noted: 1 mM ATP, 1 mM MgCl2, pH 8.0, 30 °C. Format: biochemical.

Another series has as its target T3, CpaF^80-501 (Caulobacter vibrioides, UniProt Q9L714).
T3 construct: IDR truncation, residues 80-501 (whole IDR removed), N-terminal His6 tag (pET28a), E. coli Rosetta 2
The description is as above. The class given is biochemical. The note with it: 1 mM ATP, 1 mM MgCl2, pH 8.0, 30 °C.

For a further series, the target named is T4, CpaF^66-501 (Caulobacter vibrioides, UniProt Q9L714).
T4 construct: IDR truncation, residues 66-501, N-terminal His6 tag (pET28a), E. coli Rosetta 2
Described as above. The class given is biochemical. To be noted: 1 mM ATP, 1 mM MgCl2, pH 8.0, 30 °C.

Series [1] deals with the molecule itself. Nature of the series: cryo-EM structure; purified CpaF, 5 mg/mL, 50 mM HEPES pH 8.0, 200 mM NaCl, 1 mM TCEP, 0.05% CHAPS; three samples: no added nucleotide, 50 uM equimolar ATP/ADP/MgCl2, 1 mM ATP/MgCl2; C2-symmetric hexamers (closed, compact, expanded).

T1 sequence (Q9L714 entry or part of it K287A): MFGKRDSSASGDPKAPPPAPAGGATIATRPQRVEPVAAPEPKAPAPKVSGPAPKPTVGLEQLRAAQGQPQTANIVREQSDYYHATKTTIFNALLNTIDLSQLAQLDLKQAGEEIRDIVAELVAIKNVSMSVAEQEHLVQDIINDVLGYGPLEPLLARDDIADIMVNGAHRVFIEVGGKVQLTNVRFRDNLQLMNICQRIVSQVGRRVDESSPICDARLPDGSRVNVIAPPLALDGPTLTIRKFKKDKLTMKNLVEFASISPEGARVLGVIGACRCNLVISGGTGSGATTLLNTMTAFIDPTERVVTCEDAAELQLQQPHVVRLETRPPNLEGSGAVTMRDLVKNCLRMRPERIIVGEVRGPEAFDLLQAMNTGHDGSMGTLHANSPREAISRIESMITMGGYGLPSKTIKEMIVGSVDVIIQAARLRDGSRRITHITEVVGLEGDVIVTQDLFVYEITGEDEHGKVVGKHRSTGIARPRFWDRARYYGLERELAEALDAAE

As for `Nc1ncnc2c1ncn2[C@@H]1O[C@H](COP(=O)(O)OP(=O)(O)OP(=O)(O)O)[C@@H](O)[C@H]1O` [ATP], the ATPase activity entry is “IDR truncation does not abrogate enzyme activity while a Walker A motif point mutant CpaF^K287A does” on CpaF, “Enzyme-coupled ATPase assays revealed that IDR truncation does not abrogate enzyme activity” on CpaF^73-501, “Enzyme-coupled ATPase assays revealed that IDR truncation does not abrogate enzyme activity” at CpaF^80-501 and “Enzyme-coupled ATPase assays revealed that IDR truncation does not abrogate enzyme activity” on CpaF^66-501.

B1: Caulobacter crescentus CpaF (Tad pilus motor ATPase) (enzyme, Caulobacter crescentus NA1000, UniProt Q9L714 1-501, looked up)
chain: MFGKRDSSASGDPKAPPPAPAGGATIATRPQRVEPVAAPEPKAPAPKVSGPAPKPTVGLEQLRAAQGQPQTANIVREQSDYYHATKTTIFNALLNTIDLSQLAQLDLKQAGEEIRDIVAELVAIKNVSMSVAEQEHLVQDIINDVLGYGPLEPLLARDDIADIMVNGAHRVFIEVGGKVQLTNVRFRDNLQLMNICQRIVSQVGRRVDESSPICDARLPDGSRVNVIAPPLALDGPTLTIRKFKKDKLTMKNLVEFASISPEGARVLGVIGACRCNLVISGGTGSGKTTLLNTMTAFIDPTERVVTCEDAAELQLQQPHVVRLETRPPNLEGSGAVTMRDLVKNCLRMRPERIIVGEVRGPEAFDLLQAMNTGHDGSMGTLHANSPREAISRIESMITMGGYGLPSKTIKEMIVGSVDVIIQAARLRDGSRRITHITEVVGLEGDVIVTQDLFVYEITGEDEHGKVVGKHRSTGIARPRFWDRARYYGLERELAEALDAAE
notes: CpaF, Caulobacter crescentus NA1000, cloned from genomic DNA into pET28a; 501 residues (IDR 1-79, 3HB 80-146, NTD-CAD 147-501); residues 80-501 are modelled in the maps, the IDR is not resolved; Hexamer with C2 symmetry in all five cryo-EM structures; the construct was cloned from strain NA1000; also called WT CpaF; full length CpaF; source: E. coli Rosetta 2, purified (Ni-NTA, Superose 6 SEC)
On to B1, for which the “stoichiometry N” value in series [1] amounted to 6.

The term stoichiometry N denotes the number of molecules, sites or subunits per partner or assembly.
